Results from patent publication US10093623B2, “Cyclic amides as MetAP-2 inhibitors” (MERCK PATENT GmbH, priority 2012, dated 2018).

Biological target: MetAP-2 (Homo sapiens, UniProt P50579)
Assay: MetAP-2 activity measurement (coupled enzymatic reactions, Met-Arg-Ser substrate, dianisidine detection at 450 nm)
Format: biochemical
Details: Inhibition of MetAP-2; read-out: IC50 enzyme
Description: MetAP-2 Activity Measurement
The MetAP-2 activity is determined by coupling enzymatic reactions. The tripeptide Met-Arg-Ser (MAS) is employed as substrate. The methionine liberated is firstly converted into Metox and H2O2 by L-aminooxidase (AAO). In the second step, the peroxidase (POD) with the aid of the H2O2 catalyses the oxidation of the leukodye dianisidine to dianisidineox, the increase of which is detected photometrically at 450 nm.
MetAP-2 activity can be recorded continuously as kinetics. The reaction scheme illustrates that one mol of dianisidineox is formed per mol of methionene. The MetAP-2 enzyme activity can therefore be calculated directly as A absorption per time unit. Qualification of the MetAP-2 activity (mol of Met/time unit) is possible with the aid of the dianisidineox extinction coefficient.
The change in extinction per time unit is depicted graphically and a slope calculation is carried out in the visually linear region of the reaction.

Sequence of MetAP-2 (P50579 whole entry, species assumed): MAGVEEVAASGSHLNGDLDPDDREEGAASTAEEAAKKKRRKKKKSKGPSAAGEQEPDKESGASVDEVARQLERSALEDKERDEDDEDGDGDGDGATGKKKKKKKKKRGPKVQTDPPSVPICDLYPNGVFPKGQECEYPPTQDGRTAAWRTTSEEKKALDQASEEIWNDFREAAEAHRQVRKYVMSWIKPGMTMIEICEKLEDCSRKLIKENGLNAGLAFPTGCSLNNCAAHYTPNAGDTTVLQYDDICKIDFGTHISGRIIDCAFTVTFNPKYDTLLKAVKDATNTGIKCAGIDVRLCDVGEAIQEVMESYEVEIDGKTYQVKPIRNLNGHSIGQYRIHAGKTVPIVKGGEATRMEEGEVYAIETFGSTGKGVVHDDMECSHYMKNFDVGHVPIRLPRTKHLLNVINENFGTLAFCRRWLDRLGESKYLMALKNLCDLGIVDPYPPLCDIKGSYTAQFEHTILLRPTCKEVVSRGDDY

IC50 | SMILES
10 to 1000 nM | O=C(NC1CC1)c1cccc(N2CC[C@](O)(C(=O)NCc3cc(F)cc(Cl)c3)C2=O)c1 [A75, N-(3-Chloro-5-fluorobenzyl)-(S)-1-(3-cyclopropylcarbamoylphenyl)-3-hydroxy-2-oxopyrrolidine-3-carboxamide]
> 10000 nM | O=C(NCc1cc(F)cc(Cl)c1)C1(O)CCN([C@H]2[C@@H]3CNC[C@@H]32)C1=O (stereo partly drawn) [A229, N-(3-Chloro-5-fluorobenzyl)-1-(1S,5R,6S)-3-azabicyclo-[3.1.0]hex-6-yl-3-hydroxy-2-oxo-pyrrolidine-3-carboxamide]
10 to 1000 nM | O=C(NCc1cc(F)cc(Cl)c1)[C@@]1(O)CCN(Cc2n[nH]c3ccccc23)C1=O [B60, N-(3-Chloro-5-fluorobenzyl)-(S)-3-hydroxy-1-(1H-indazol-3-ylmethyl)-2-oxopyrrolidine-3-carboxamide]
1000 to 10000 nM | CC(C)(C)OC(=O)N1CC(CN2CCC(O)(C(=O)NCc3cc(F)cc(Cl)c3)C2=O)C1 (centres unmarked) [A213, tert-Butyl 3-[3-(3-chloro-5-fluorobenzylcarbamoyl)-3-hydroxy-2-oxopyrrolidin-1-yl-methyl]-azetidine-1-carboxylate]
1000 to 10000 nM | O=C1N(c2ccccc2)CCC1(O)CNCCc1ccc(F)cc1 (centres unmarked) [B47, 3-{[2-(4-Fluorophenyl)-ethylamino]methyl}-3-hydroxy-1-phenylpyrrolidin-2-one]
1000 to 10000 nM | O=C(NCc1cc(F)cc(Cl)c1)C1(O)CCN([C@H]2CCC[C@H](O)[C@@H]2O)C1=O (stereo partly drawn) [A125, N-(3-Chloro-5-fluorobenzyl)-1-((1S,2R,3S)-2,3-dihydroxy-cyclohexyl)-3-hydroxy-2-oxo-pyrrolidine-3-carboxamide]
1000 to 10000 nM | O=C(NCc1cc(F)cc(Cl)c1)[C@]1(O)CCN(c2cc(C(F)(F)F)ccc2F)C1=O [B42, N-(3-Chloro-5-fluorobenzyl)-(R)-1-(2-Fluoro-5-trifluoromethyl-phenyl)-3-hydroxy-2-oxo-pyrrolidine-3-carboxamide]
> 10000 nM | CN1CCCC1CCNC(=O)[C@@]1(O)CCN(c2ccccc2)C1=O (stereo partly drawn) [A63, N-[2-(1-Methylpyrrolidin-2-yl)ethyl]-(S)-3-hydroxy-2-oxo-1-phenyl-pyrrolidine-3-carboxamide]
10 to 1000 nM | NCCNC(=O)c1cc2cc(N3CC[C@](O)(C(=O)NCc4cc(F)cc(Cl)c4)C3=O)ccc2[nH]1 [B132, N-(2-Aminoethyl)-5-[(S)-3-(3-chloro-5-fluorobenzyl-carbamoyl)-3-hydroxy-2-oxo-pyrrolidin-1-yl]-1H-indole-2-carboxamide]
10 to 1000 nM | Cc1noc(-c2cc3cc(N4CC[C@](O)(C(=O)NCc5cc(F)cc(Cl)c5)C4=O)ccc3[nH]2)n1 [B135, N-(3-Chloro-5-fluorobenzyl)-(S)-3-hydroxy-1-[2-(3-methyl-1,2,4-oxadiazol-5-yl)-1H-indol-5-yl]-2-oxopyrrolidine-3-carboxamide]
10 to 1000 nM | Cc1nc2cc(N3CCC(O)(C(=O)NCc4cc(F)cc(Cl)c4)C3=O)cnc2[nH]1 (centres unmarked) [B33, N-(3-Chloro-5-fluorobenzyl)-3-hydroxy-1-(2-methyl-3H-imidazo[4,5-b]pyridin-6-yl)-2-oxopyrrolidine-3-carboxamide]
10 to 1000 nM | N#CCn1cc(N2CC[C@](O)(C(=O)NCc3cc(F)cc(Cl)c3)C2=O)cn1 [B116, N-(3-Chloro-5-fluorobenzyl)-(S)-1-(1-cyanomethyl-1H-pyrazol-4-yl)-3-hydroxy-2-oxopyrrolidine-3-carboxamide]
1000 to 10000 nM | NC(=O)c1cccc(N2CC[C@@](O)(C(=O)NCCc3cc(F)cc(Cl)c3)C2=O)c1 [A159, N-[2-(3-Chloro-5-fluorophenyl)-ethyl]-(R)-1-(3-carbamoyl-phenyl)-3-hydroxy-2-oxo-pyrrolidine-3-carboxamide]
10 to 1000 nM | N#Cc1c[nH]c2ccc(N3CC[C@](O)(C(=O)NCc4cc(F)cc(Cl)c4)C3=O)cc12 [A222, N-(3-Chloro-5-fluorobenzyl)-(S)-1-(3-cyano-1H-indol-5-yl)-3-hydroxy-2-oxopyrrolidine-3-carboxamide]
1000 to 10000 nM | O=C(CN1CCC(O)(C(=O)NCc2cc(F)cc(Cl)c2)C1=O)Nc1ccccc1 (centres unmarked) [A187, N-(3-Chloro-5-fluorobenzyl)-3-hydroxy-2-oxo-1-phenyl-carbamoylmethylpyrrolidine-3-carboxamide]
10 to 1000 nM | O=C1CCc2cc(N3CC[C@](O)(C(=O)NCc4ccc(F)c(Cl)c4)C3=O)ccc2N1 [A247, N-(3-Chloro-4-fluorobenzyl)-(S)-3-hydroxy-2-oxo-1-(2-oxo-1,2,3,4-tetrahydroquinolin-6-yl)-pyrrolidine-3-carboxamide]
1000 to 10000 nM | CC(=O)N1CC[C@@H](N2CCC(O)(C(=O)NCc3cc(F)cc(Cl)c3)C2=O)C1 (stereo partly drawn) [A291, N-(3-chloro-5-fluorobenzyl-)(R)-1′-acetyl-3-hydroxy-2-oxo-[1,3′]bipyrrolidinyl-3-carboxamide]
1000 to 10000 nM | O=C(NCc1cc(F)cc(Cl)c1)C1(O)CCN(Cc2c[nH]cn2)C1=O (centres unmarked) [A279, N-(3-Chloro-5-fluorobenzyl)-3-hydroxy-1-(1H-imidazol-4-ylmethyl)-2-oxopyrrolidine-3-carboxamide]
10 to 1000 nM | O=C(c1cc2cc(N3CC[C@](O)(C(=O)NCc4cc(F)cc(Cl)c4)C3=O)ccc2[nH]1)N1CCNCC1 [B126, N-(3-Chloro-5-fluorobenzyl)-(S)-3-hydroxy-2-oxo-1-[2-(piperazin-1-carbonyl)-1H-indol-5-yl]-pyrrolidine-3-carboxamide]
10 to 1000 nM | CCNC(=O)c1cc2cc(N3CC[C@](O)(C(=O)NCc4cc(F)cc(Cl)c4)C3=O)ccc2o1 [A194, N-(3-Chloro-5-fluorobenzyl)-(S)-1-(2-ethylcarbamoylbenzofuran-5-yl)-3-hydroxy-2-oxopyrrolidine-3-carboxamide]
10 to 1000 nM | O=C(NCc1cc(F)cc(Cl)c1)C1(O)CCN(c2ccc3c(c2)c(C(F)(F)F)cn3CO)C1=O (centres unmarked) [A112, N-(3-Chloro-5-fluorobenzyl)-3-hydroxy-1-(1-hydroxymethyl-3-trifluoromethyl-1H-indol-5-yl)-2-oxopyrrolidine-3-carboxamide]
1000 to 10000 nM | CN(c1cccc(N2CC[C@@](O)(C(=O)NCc3cc(F)cc(Cl)c3)C2=O)c1)S(C)(=O)=O [A166, N-(3-Chloro-5-fluorobenzyl)-(R)-3-hydroxy-1-[3-(methane-sulfonylmethylamino)phenyl]-2-oxopyrrolidine-3-carboxamide]
1000 to 10000 nM | CCOC(=O)C1CCCC(N2CCC(O)(C(=O)NCc3cc(F)cc(Cl)c3)C2=O)C1 (centres unmarked) [A202, Ethyl 3-[3-(3-chloro-5-fluorobenzylcarbamoyl)-3-hydroxy-2-oxopyrrolidin-1-yl]-cyclohexanecarboxylate]
10 to 1000 nM | O=C(NCc1cc(F)cc(Cl)c1)[C@@]1(O)CCN(c2ccc(Br)c(CO)c2)C1=O [B17, N-(3-Chloro-5-fluorobenzyl)-(S)-1-(4-bromo-3-hydroxymethyl-phenyl)-3-hydroxy-2-oxo-pyrrolidine-3-carboxamide]

SMILES | IC50
COC(=O)CCc1cc(N2CCC(O)(C(=O)NCc3cc(F)cc(Cl)c3)C2=O)ccc1NC(=O)OC(C)(C)C (centres unmarked) [B105, Methyl 3-{2-tert-butoxy-carbonylamino-5-[3-(3-chloro-5-fluorobenzylcarbamoyl)-3-hydroxy-2-oxopyrrolidin-1-yl]-phenyl}propionate] | 10 to 1000 nM
O=C1N(Cc2ccccc2)CCC[C@@]1(O)CNCc1cc(F)cc(Cl)c1 [B55, (R)-1-Benzyl-3-[(3-chloro-5-fluorobenzylamino)methyl]-3-hydroxypiperidin-2-one] | 1000 to 10000 nM
